Reference: ChEMBL document CHEMBL1201862, “PubChem BioAssay data set” (2004)
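Cultured in 96-well plates, cells were exposed to test compound for 48 hours across five concentrations. GI50 is the concentration that inhibits growth by half.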 Calls of active or inactive are those of the source. Rule as the data show it: active = GI50 up to about 1.1 µM and inactive = higher.

Tests used:
Assay in all cases: inhibition of tumour cell growth, NCI panel, 48 h
ACHN = system: ACHN
DLD-1 = system: DLD-1
DMS-273 = system: DMS-273
KM-20L2 = system: KM-20L2
Malme-3M = system: Malme-3M
NCI-H522 = system: NCI-H522
RXF 393 = system: RXF 393
SR = system: SR
TK-10 = system: TK-10
XF498 = system: XF498
DU-145 = system: DU-145
HL-60 = system: HL-60
M14 = system: M14
MCF7 = system: MCF7
MDA-MB-231 = system: MDA-MB-231
MDA-MB-435 = system: MDA-MB-435
MDA-N = system: MDA-N
NCI/ADR-RES = system: NCI/ADR-RES
PC-3 = system: PC-3
T47D = system: T47D

SMILES | GI50 (ACHN) | GI50 (DLD-1) | GI50 (DMS-273) | GI50 (KM-20L2) | GI50 (Malme-3M) | GI50 (NCI-H522) | GI50 (RXF 393) | GI50 (SR) | GI50 (TK-10) | GI50 (XF498) | GI50 (DU-145) | GI50 (HL-60) | GI50 (M14) | GI50 (MCF7) | GI50 (MDA-MB-231) | GI50 (MDA-MB-435) | GI50 (MDA-N) | GI50 (NCI/ADR-RES) | GI50 (PC-3) | GI50 (T47D)
N#CCCN(CCC#N)c1ccc(/C=C2\N=C(c3cc([N+](=O)[O-])ccc3Cl)N(S(=O)(=O)c3ccccc3)C2=O)cc1 | > 100 µM (inactive) | > 100 µM (inactive) | > 100 µM (inactive) | > 100 µM (inactive) | > 100 µM (inactive) | > 100 µM (inactive) | > 100 µM (inactive) | > 100 µM (inactive) | > 100 µM (inactive) | > 100 µM (inactive) | – | – | – | – | – | – | – | – | – | –
CSc1ncc2c(n1)-c1ccccc1OC2NC1CC1 (stereo not drawn) | 49.5 µM (inactive) | – | – | – | – | 24.8 µM (inactive) | > 100 µM (inactive) | > 100 µM (inactive) | 32.7 µM (inactive) | – | 63 µM (inactive) | 30.2 µM (inactive) | > 100 µM (inactive) | 58.3 µM (inactive) | > 100 µM (inactive) | > 100 µM (inactive) | > 100 µM (inactive) | 48.1 µM (inactive) | 50.7 µM (inactive) | 28.6 µM (inactive)
CC(=O)N1C(=O)/C(=C\C(=O)c2ccc(Cl)cc2)c2ccccc21 | 9.31 µM (inactive) | – | – | – | 16.3 µM (inactive) | 10.9 µM (inactive) | 15.3 µM (inactive) | 2.48 µM (inactive) | 15.6 µM (inactive) | – | 17.1 µM (inactive) | 2.28 µM (inactive) | 16.5 µM (inactive) | 21 µM (inactive) | 13.9 µM (inactive) | 14.1 µM (inactive) | 14.4 µM (inactive) | 20.6 µM (inactive) | 11.4 µM (inactive) | 16.5 µM (inactive)
CC(=O)O[C@H]1CC[C@@]2(C)C(=CC[C@H]3[C@@H]4C[C@H](N5CCN(C)CC5)[C@H](OC(C)=O)[C@@]4(C)CC[C@@H]32)C1 | 41.9 µM (inactive) | – | – | – | 11.7 µM (inactive) | 18.8 µM (inactive) | 19.1 µM (inactive) | 4.68 µM (inactive) | > 100 µM (inactive) | – | > 100 µM (inactive) | 2.44 µM (inactive) | 3.27 µM (inactive) | 5.64 µM (inactive) | 16.7 µM (inactive) | 5.08 µM (inactive) | 12.1 µM (inactive) | 19.6 µM (inactive) | 16.8 µM (inactive) | 17.8 µM (inactive)
Fc1nc(F)nc(-c2c3ccccc3c3n2CCS3)n1 | > 100 µM (inactive) | 57.8 µM (inactive) | 76.2 µM (inactive) | > 100 µM (inactive) | > 100 µM (inactive) | 47.2 µM (inactive) | 91.2 µM (inactive) | 37 µM (inactive) | > 10 µM (inactive) | 23.4 µM (inactive) | – | 46.8 µM (inactive) | 71.1 µM (inactive) | – | – | – | – | – | – | –
Cc1cc(C)c2c(c1)CC1(Cc3c(C)ccc(C)c3C1=O)C2=O (stereo not drawn) | > 100 µM (inactive) | – | – | – | > 100 µM (inactive) | > 100 µM (inactive) | > 100 µM (inactive) | > 100 µM (inactive) | > 100 µM (inactive) | – | > 100 µM (inactive) | > 100 µM (inactive) | > 100 µM (inactive) | > 100 µM (inactive) | > 100 µM (inactive) | > 100 µM (inactive) | > 100 µM (inactive) | > 100 µM (inactive) | > 100 µM (inactive) | > 100 µM (inactive)
C1=CC=C2NCCCCCCC/N=C3/C=CC=CC=C3NCCCCCCC/N=C\2C=C1 | 85.7 µM (inactive) | 49.4 µM (inactive) | 19.1 µM (inactive) | 30.5 µM (inactive) | > 100 µM (inactive) | 52.5 µM (inactive) | 16.9 µM (inactive) | 63.5 µM (inactive) | – | > 100 µM (inactive) | – | 43.5 µM (inactive) | 10 µM (inactive) | – | – | – | – | – | – | –
CC(=O)C(=O)NC1/C=C(C)\C=C/C(O)C/C=C(C)\C=C/C(O)CC2OC(=O)C1(C)C(=O)C2C (stereo not drawn) | – | > 100 µM (inactive) | > 100 µM (inactive) | > 100 µM (inactive) | > 100 µM (inactive) | > 100 µM (inactive) | > 100 µM (inactive) | – | – | – | – | – | – | > 100 µM (inactive) | – | – | – | > 100 µM (inactive) | – | –
CCCCN(CCCC)C(=O)C(=O)C(C(=O)C(=O)OC)c1nc2ccccc2o1 (stereo not drawn) | > 100 µM (inactive) | 53.8 µM (inactive) | > 100 µM (inactive) | – | > 100 µM (inactive) | > 100 µM (inactive) | 17.5 µM (inactive) | 48.8 µM (inactive) | > 100 µM (inactive) | 64.3 µM (inactive) | – | 69.3 µM (inactive) | > 100 µM (inactive) | – | – | – | – | – | – | –
NCCCn1c(Cl)nc2ccccc21 | > 100 µM (inactive) | – | – | – | > 100 µM (inactive) | > 100 µM (inactive) | > 100 µM (inactive) | > 100 µM (inactive) | – | – | > 100 µM (inactive) | > 100 µM (inactive) | > 100 µM (inactive) | > 100 µM (inactive) | > 100 µM (inactive) | > 100 µM (inactive) | > 100 µM (inactive) | > 100 µM (inactive) | > 100 µM (inactive) | > 100 µM (inactive)
CSC(=S)N(C)c1nc(N(C)C)s[s+]1 | > 100 µM (inactive) | > 100 µM (inactive) | > 100 µM (inactive) | > 100 µM (inactive) | > 100 µM (inactive) | > 100 µM (inactive) | > 100 µM (inactive) | > 100 µM (inactive) | > 100 µM (inactive) | > 100 µM (inactive) | – | 65.2 µM (inactive) | > 100 µM (inactive) | – | – | – | – | – | – | –
O=C(O)CSc1nnc(/C=C/c2ccccc2)[nH]1 | > 100 µM (inactive) | > 100 µM (inactive) | > 100 µM (inactive) | > 100 µM (inactive) | > 100 µM (inactive) | > 100 µM (inactive) | > 100 µM (inactive) | > 100 µM (inactive) | > 100 µM (inactive) | > 100 µM (inactive) | – | > 100 µM (inactive) | > 100 µM (inactive) | – | – | – | – | – | – | –
O=C1/C(=C/c2ccc(C(=O)O)cc2)CNC/C1=C\c1ccc(C(=O)O)cc1 | > 100 µM (inactive) | > 100 µM (inactive) | > 100 µM (inactive) | > 100 µM (inactive) | > 100 µM (inactive) | – | > 100 µM (inactive) | > 100 µM (inactive) | > 100 µM (inactive) | > 100 µM (inactive) | – | > 100 µM (inactive) | > 100 µM (inactive) | – | – | – | – | – | – | –
C[n+]1ccc(Nc2ccc(NC(=O)c3ccc(Nc4cc[n+](C)c5ccc([N+](=O)[O-])cc45)cc3[N+](=O)[O-])cc2)cc1 | – | > 92 µM (inactive) | 34.9 µM (inactive) | – | 19.7 µM (inactive) | 16.6 µM (inactive) | – | – | – | > 41.3 µM (inactive) | – | – | – | – | – | – | – | > 85.7 µM (inactive) | – | –
CN1CCC(c2c(O)cc(O)c3c(=O)cc(-c4ccccc4Cl)oc23)C(O)C1 (stereo not drawn) | 0.048 µM (active) | 0.0368 µM (active) | 0.0335 µM (active) | 0.217 µM (active) | 0.203 µM (active) | 0.136 µM (active) | < 0.0149 µM (active) | 0.0247 µM (active) | 0.219 µM (active) | 0.0492 µM (active) | – | 0.0197 µM (active) | 0.111 µM (active) | – | – | – | – | – | – | –
